Drawing on PubChem BioAssay (NCI), this text covers GI50 and TGI for 32 molecules.

Values joined by “and” are separate entries in the source; they are usually repeats but may differ in a detail not shown here. Equal entries are not always repeated.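 Assay format: 96-well plates, 48-hour exposure. At the GI50, growth is halved. TGI is the concentration that stops growth completely.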

In this assay the test system is MDA-MB-468 breast. Nature of the assay: NCI tumour cell line growth inhibition, 48 h.
Regarding `COc1cc(C2c3cc4c(cc3OC(C)(N3CCCC3)C2C)OCO4)cc(OC)c1OC` (centres undefined), the GI50 was 419 nM and the TGI is 31.2 µM.

Turning to `CCOc1cccc(/C=N/NC(=O)c2cccc(Nc3ccnc(C(F)(F)F)c3)c2)c1O`, the GI50 was 327 nM and the TGI was more than 100 µM.

For the molecule `COc1cccc2c1C(=N)c1c(O)c3c(c(O)c1C2=O)C[C@@](O)(C(C)=O)C[C@@H]3O[C@H]1C[C@H](N)[C@H](O)[C@H](C)O1`, the GI50 was 278 nM and the TGI turned out to be 1.28 µM.

Turning to `CCN1C(=O)c2ccc3c4c(ccc(c24)C1=O)C(=O)N(CCCNCc1ccccc1OC)C3=O`, the GI50 is 326 nM and the TGI is 1.3 µM.

Consider `CC/C=C\C[C@H]1CC=C2C(=O)C=C[C@@H]2CC=CCCCC(=O)O[C@@H](CCCCC)CC=C2C(=O)C=C[C@@H]2CC=CCCCC(=O)O[C@@H](CCCCC)CC=C2C(=O)C=C[C@@H]2CC=CCCCC(=O)O[C@@H](CCCCC)CC=C2C(=O)C=C[C@@H]2CC=CCCCC(=O)O1`, for which the GI50 is 1700 nM and the TGI was 4.22 µM.

As for `O=C(Oc1ccc[nH]c1=O)c1cc([N+](=O)[O-])cc([N+](=O)[O-])c1`, the GI50 is more than 100000 nM and the TGI is more than 100 µM.

`O=C1C=CC(=O)C2C1C1(Cl)C(Cl)=C(Cl)C2(Cl)C1(Cl)Cl` (centres undefined): the GI50 was 3290 nM and the TGI stood at 11.3 µM.

As to `NC(CSC(c1ccccc1)(c1ccccc1)c1ccccc1)C(=O)NCC(=O)O` (centres undefined), the GI50 is 2880 nM and the TGI stood at 17.7 µM.

As to `CS(=O)(=O)CCNCc1coc(-c2ccc3ncnc(Nc4ccc(OCc5ccccc5)cc4)c3c2)c1`, the GI50 is 543 nM and the TGI was 3.8 µM.

In the case of `O=C(O)c1ccc(CN2CCC(CN[C@@H]3C[C@H]3c3ccccc3)CC2)cc1`, the GI50 is more than 100000 nM and the TGI is more than 100 µM.

As to `CCCC(C)c1ccc(OCCCCCCN2CCNCC2)cc1` (centres undefined), the GI50 is 1710 nM and the TGI was 3.49 µM.

Take `Nc1n[nH]c2cccc(C#Cc3cccc(NC(=O)c4cccc(C(F)(F)F)c4)c3)c12`: the GI50 was 9710 nM and the TGI amounted to 28.2 µM.

Regarding `CCOc1cc(C(C)(C)C)ccc1C1=N[C@H](c2ccc(Cl)cc2)[C@H](c2ccc(Cl)cc2)N1C(=O)N1CCN(CC#Cc2cccc3c2CN([C@@H]2CCC(=O)NC2=O)C3=O)CC1`, the GI50 was 32.1 nM and the TGI is more than 100 µM.

As to `COc1cc(Nc2ncccc2C(=O)Nc2nc3ccc(F)cc3s2)cc(OC)c1OC`, the GI50 is 1220 nM and the TGI worked out at 8.85 µM.

Regarding `CN(C)C/C=C/C(=O)Nc1ccc(C(=O)N[C@@]2(C)CCC[C@@H](Nc3ncc(Cl)c(-c4c[nH]c5ccccc45)n3)C2)nc1`, the GI50 is 10.8 nM and the TGI was 0.0352 µM.

Take `C=C1c2c(C)nn(-c3ccc(C#CCOC4OC(CO)C(O)C(O)C4O)cc3)c2N(C)C23C[C@H]1C1(C)c4c(C)nn(-c5ccc(C#CCOC6OC(CO)C(O)C(O)C6O)cc5)c4N(C)C(C)(C[C@H]12)C3` (some centres undefined): the GI50 is 1340 nM and the TGI was determined as 2.73 µM.

On to `Cc1nnc(-c2ccc(C)c(-c3ccc(C(=O)Nc4cccc(C#N)c4)cc3)c2)o1`, for which the GI50 is 8650 nM and the TGI was more than 25 µM.

With `O=c1[nH]c2ccccc2cc1-c1nc2ccc(Cl)cc2[nH]1`, the GI50 was 3260 nM and the TGI is more than 100 µM.

Take `CCCOC(=O)N[C@H]1CCc2c(Cl)c(OC)c(OC)c(OC)c2-c2ccc(SC)c(=O)cc21`: the GI50 is less than 10 nM and the TGI worked out at 16.3 µM.

Take `C=C(C)[C@@H]1CC[C@]2(COCCCN)CC[C@]3(C)[C@H](CC[C@@H]4[C@@](C)(CCCNCCCN)[C@H](C(=C)C)CC[C@]43C)[C@@H]12`: the GI50 is 1870 nM and the TGI amounted to 3.75 µM.

In the case of `Nc1ncc(-c2cnn(C3CCNCC3)c2)cc1-c1nc2cc(Cl)ccc2o1`, the GI50 is 1650 nM and the TGI was 3.29 µM.

`CCCCCCCCn1ccc2cc(NC(=O)Cn3cc(CN4CCCCCC4)nn3)ccc21`: the GI50 is 1650 nM and the TGI was 3.33 µM.

In the case of `C=CC(=O)N1CCC(Oc2cc3c(Nc4ccc(Cl)c(Cl)c4F)ncnc3cc2OC)CC1`, the GI50 was less than 1 nM; the TGI was < 0.01 µM and 0.0199 µM.

For `CN(c1ccc(NC(=O)Nc2c(Cl)cccc2Cl)cc1)c1ccnc(Nc2cccc(CS(C)(=O)=O)c2)n1`, the GI50 was 1110 nM and the TGI worked out at 6.44 µM.

For `O=C(NC(=O)c1c(F)cccc1F)Nc1cccc(Oc2ncc(Cl)cn2)c1`, the GI50 is 7780 nM and the TGI was more than 100 µM.

On to `CC1(C)N=C(N)N=C(N)N1c1ccc(CCC(=O)Nc2ccc(S(=O)(=O)F)cc2)c(Cl)c1`, for which the GI50 is 864 nM and the TGI is more than 100 µM.

With `CCN(CC)CCNC(Cc1ccccc1)c1ccc(OCc2ccccc2)cc1` (centres undefined), the GI50 is 4240 nM and the TGI came to 18.3 µM.

In the case of `O=C1NC(=S)S/C1=C/c1ccc2c(c1)OCO2`, the GI50 is more than 100000 nM and the TGI was more than 100 µM.

As for `COC(=O)c1ccc2[nH]c(O)c(C(=Nc3ccc(N(C)C(=O)CN4CCN(C)CC4)cc3)c3ccc4c(c3)OCO4)c2c1`, the GI50 was 840 nM and the TGI was found to be 2.38 µM.

For `Cc1cn(-c2cc(NC(=O)c3cccc(C#Cc4cccc5[nH]nc(N)c45)c3)cc(C(F)(F)F)c2)cn1`, the GI50 is 17100 nM and the TGI was more than 100 µM.

For the molecule `COc1ccc2c(c1)NC1=C(C(=O)OC1)C2c1cc(OC)c(OC)c(OC)c1` (centres undefined), the GI50 was less than 10 nM and the TGI was less than 0.01 µM.

As to `O=C(/C=C/c1ccccc1)Nc1ncc(Cc2ccccc2Cl)s1`, the GI50 was 370 nM and the TGI was more than 71.5 µM.
